System: 782815-120-R-J1-PDC complex spheroid viability
Test: Anticancer human tumor 782815-120-R-J1-PDC patient-derived colon adenocarcinoma cell line growth inhibition [RAS]
Conditions: for IC50: curve of first compound; for viability, T/C: stronger effect = lower value
Summary of the method: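 Multi-cell-type spheroids: tumor cells plus HUVEC endothelial cells and mesenchymal stem cells. RAS-pathway inhibitors were combined with targeted agents, each dosed in half-log steps down from clinical Cmax, or from 10 microM when Cmax was unknown.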
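Also: spheroids exposed to compounds for 7 days before reading.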
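For viability, T/C in this document: 100% = DMSO vehicle control viability.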

## CC(=O)OC12COC1CC(O)C1(C)C(=O)C(O)C3=C(C)C(OC(=O)C(O)C(NC(=O)OC(C)(C)C)c4ccccc4)CC(O)(C(OC(=O)c4ccccc4)C21)C3(C)C (centres undefined) + CCn1c(-c2cccnc2C(C)OC)c2c3cc(ccc31)N1CCOC(CC(NC(=O)C(C(C)C)N(C)C(=O)C3(F)CCN(C(=O)C#CC(C)(C)N(C)C)CC3)C(=O)N3CCCC(N3)C(=O)OCC(C)(C)C2)C1
Second compound 0.000949 µM
  IC50: < 31.6 nM
Second compound 0.003 µM
  IC50: < 31.6 nM
Second compound 0.00949 µM
  IC50: < 31.6 nM
Second compound 0.03 µM
  IC50: < 31.6 nM
Second compound 0.0949 µM
  IC50: < 31.6 nM
Second compound 0.3 µM
  IC50: < 31.6 nM
Second compound 0.000949 µM, first compound 0.0316 µM
  viability, T/C: 31.7%
Second compound 0.000949 µM, first compound 0.1 µM
  viability, T/C: 27.2%
Second compound 0.000949 µM, first compound 0.316 µM
  viability, T/C: 28.5%
Second compound 0.000949 µM, first compound 1 µM
  viability, T/C: 30.2%
Second compound 0.000949 µM, first compound 3.16 µM
  viability, T/C: 27.4%
Second compound 0.000949 µM, first compound 10 µM
  viability, T/C: 32.5%
Second compound 0.003 µM, first compound 0.0316 µM
  viability, T/C: 33.1%
Second compound 0.003 µM, first compound 0.1 µM
  viability, T/C: 26.5%
Second compound 0.003 µM, first compound 0.316 µM
  viability, T/C: 28.2%
Second compound 0.003 µM, first compound 1 µM
  viability, T/C: 32.6%
Second compound 0.003 µM, first compound 3.16 µM
  viability, T/C: 27.9%
Second compound 0.003 µM, first compound 10 µM
  viability, T/C: 30.2%
Second compound 0.00949 µM, first compound 0.0316 µM
  viability, T/C: 29%
Second compound 0.00949 µM, first compound 0.1 µM
  viability, T/C: 29.7%
Second compound 0.00949 µM, first compound 0.316 µM
  viability, T/C: 29.9%
Second compound 0.00949 µM, first compound 1 µM
  viability, T/C: 32.5%
Second compound 0.00949 µM, first compound 3.16 µM
  viability, T/C: 26.1%
Second compound 0.00949 µM, first compound 10 µM
  viability, T/C: 28.2%
Second compound 0.03 µM, first compound 0.0316 µM
  viability, T/C: 34.2%
Second compound 0.03 µM, first compound 0.1 µM
  viability, T/C: 29.4%
Second compound 0.03 µM, first compound 0.316 µM
  viability, T/C: 24%
Second compound 0.03 µM, first compound 1 µM
  viability, T/C: 27.7%
Second compound 0.03 µM, first compound 3.16 µM
  viability, T/C: 29.5%
Second compound 0.03 µM, first compound 10 µM
  viability, T/C: 27.7%
Second compound 0.0949 µM, first compound 0.0316 µM
  viability, T/C: 28.6%
Second compound 0.0949 µM, first compound 0.1 µM
  viability, T/C: 29.9%
Second compound 0.0949 µM, first compound 0.316 µM
  viability, T/C: 25.7%
Second compound 0.0949 µM, first compound 1 µM
  viability, T/C: 31.2%
Second compound 0.0949 µM, first compound 3.16 µM
  viability, T/C: 26%
Second compound 0.0949 µM, first compound 10 µM
  viability, T/C: 26.7%
Second compound 0.3 µM, first compound 0.0316 µM
  viability, T/C: 22.7%
Second compound 0.3 µM, first compound 0.1 µM
  viability, T/C: 27.9%
Second compound 0.3 µM, first compound 0.316 µM
  viability, T/C: 23.3%
Second compound 0.3 µM, first compound 1 µM
  viability, T/C: 21.9%
Second compound 0.3 µM, first compound 3.16 µM
  viability, T/C: 25.2%
Second compound 0.3 µM, first compound 10 µM
  viability, T/C: 24.4%

## CC(=O)OC12COC1CC(O)C1(C)C(=O)C(O)C3=C(C)C(OC(=O)C(O)C(NC(=O)OC(C)(C)C)c4ccccc4)CC(O)(C(OC(=O)c4ccccc4)C21)C3(C)C (centres undefined) + C=CC(=O)N1CCN(c2nc(OCC3CCCN3C)nc3c(F)c(-c4nc(N)cc(C)c4C(F)(F)F)c(Cl)cc23)C(C)C1
Second compound 0.00316 µM
  IC50: < 31.6 nM
Second compound 0.01 µM
  IC50: < 31.6 nM
Second compound 0.0316 µM
  IC50: < 31.6 nM
Second compound 0.1 µM
  IC50: < 31.6 nM
Second compound 0.316 µM
  IC50: < 31.6 nM
Second compound 1 µM
  IC50: < 31.6 nM
Second compound 0.00316 µM, first compound 0.0316 µM
  viability, T/C: 33.6%
Second compound 0.00316 µM, first compound 0.1 µM
  viability, T/C: 31.1%
Second compound 0.00316 µM, first compound 0.316 µM
  viability, T/C: 25.6%
Second compound 0.00316 µM, first compound 1 µM
  viability, T/C: 23.6%
Second compound 0.00316 µM, first compound 3.16 µM
  viability, T/C: 28.3%
Second compound 0.00316 µM, first compound 10 µM
  viability, T/C: 33.2%
Second compound 0.01 µM, first compound 0.0316 µM
  viability, T/C: 34.1%
Second compound 0.01 µM, first compound 0.1 µM
  viability, T/C: 32%
Second compound 0.01 µM, first compound 0.316 µM
  viability, T/C: 25.7%
Second compound 0.01 µM, first compound 1 µM
  viability, T/C: 22.3%
Second compound 0.01 µM, first compound 3.16 µM
  viability, T/C: 25%
Second compound 0.01 µM, first compound 10 µM
  viability, T/C: 34.1%
Second compound 0.0316 µM, first compound 0.0316 µM
  viability, T/C: 40%
Second compound 0.0316 µM, first compound 0.1 µM
  viability, T/C: 24.2%
Second compound 0.0316 µM, first compound 0.316 µM
  viability, T/C: 23.6%
Second compound 0.0316 µM, first compound 1 µM
  viability, T/C: 27.6%
Second compound 0.0316 µM, first compound 3.16 µM
  viability, T/C: 23.6%
Second compound 0.0316 µM, first compound 10 µM
  viability, T/C: 34.7%
Second compound 0.1 µM, first compound 0.0316 µM
  viability, T/C: 36.8%
Second compound 0.1 µM, first compound 0.1 µM
  viability, T/C: 30.4%
Second compound 0.1 µM, first compound 0.316 µM
  viability, T/C: 20.3%
Second compound 0.1 µM, first compound 1 µM
  viability, T/C: 22.9%
Second compound 0.1 µM, first compound 3.16 µM
  viability, T/C: 25%
Second compound 0.1 µM, first compound 10 µM
  viability, T/C: 29.2%
Second compound 0.316 µM, first compound 0.0316 µM
  viability, T/C: 37.4%
Second compound 0.316 µM, first compound 0.1 µM
  viability, T/C: 27.4%
Second compound 0.316 µM, first compound 0.316 µM
  viability, T/C: 25%
Second compound 0.316 µM, first compound 1 µM
  viability, T/C: 23.5%
Second compound 0.316 µM, first compound 3.16 µM
  viability, T/C: 28.4%
Second compound 0.316 µM, first compound 10 µM
  viability, T/C: 29.6%
Second compound 1 µM, first compound 0.0316 µM
  viability, T/C: 38.1%
Second compound 1 µM, first compound 0.1 µM
  viability, T/C: 26.9%
Second compound 1 µM, first compound 0.316 µM
  viability, T/C: 27.4%
Second compound 1 µM, first compound 1 µM
  viability, T/C: 23.6%
Second compound 1 µM, first compound 3.16 µM
  viability, T/C: 27.5%
Second compound 1 µM, first compound 10 µM
  viability, T/C: 33.3%

Reference: PubChem BioAssay AID2060887 (Molecular Pharmacology Branch, DTP, NCI, 2025)
